# Source: PubChem BioAssay AID1963442 (Molecular Pharmacology Branch, DTP, NCI, 2024)
# System: MPNST complex spheroid with HUVEC/MSC, growth, % test/control
# Experiment: Anticancer human tumor MPNST cell line growth inhibition [Asc];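 note: compounds left on spheroids for seven days before reading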
# Details: for viability, T/C: stronger effect = lower value
# In short: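 Concentration series start at each agent's clinical Cmax, or at 10 microM when none is established, and drop in half-log steps; agents are applied alone or together to complex spheroids built with HUVEC and hMSC.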
# [1] = curve of first compound, second compound 0.1 µM
# [2] = curve of first compound, second compound 0.316 µM
# [3] = curve of first compound, second compound 1 µM
# [4] = curve of first compound, second compound 0.00316 µM
# [5] = curve of first compound, second compound 0.01 µM
# [6] = curve of first compound, second compound 0.0316 µM
# [7] = second compound 0.00316 µM, first compound 0.00949 µM
# [8] = second compound 0.00316 µM, first compound 0.03 µM
# [9] = second compound 0.00316 µM, first compound 0.0949 µM
# [10] = second compound 0.00316 µM, first compound 0.3 µM
# [11] = second compound 0.00316 µM, first compound 0.949 µM
# [12] = second compound 0.00316 µM, first compound 3 µM
# [13] = second compound 0.01 µM, first compound 0.00949 µM
# [14] = second compound 0.01 µM, first compound 0.03 µM
# [15] = second compound 0.01 µM, first compound 0.0949 µM
# [16] = second compound 0.01 µM, first compound 0.3 µM
# [17] = second compound 0.01 µM, first compound 0.949 µM
# [18] = second compound 0.01 µM, first compound 3 µM
# [19] = second compound 0.0316 µM, first compound 0.00949 µM
# [20] = second compound 0.0316 µM, first compound 0.03 µM
# [21] = second compound 0.0316 µM, first compound 0.0949 µM
# [22] = second compound 0.0316 µM, first compound 0.3 µM
# [23] = second compound 0.0316 µM, first compound 0.949 µM
# [24] = second compound 0.0316 µM, first compound 3 µM
# [25] = second compound 0.1 µM, first compound 0.00949 µM
# [26] = second compound 0.1 µM, first compound 0.03 µM
# [27] = second compound 0.1 µM, first compound 0.0949 µM
# [28] = second compound 0.1 µM, first compound 0.3 µM
# [29] = second compound 0.1 µM, first compound 0.949 µM
# [30] = second compound 0.1 µM, first compound 3 µM
# [31] = second compound 0.316 µM, first compound 0.00949 µM
# [32] = second compound 0.316 µM, first compound 0.03 µM
# [33] = second compound 0.316 µM, first compound 0.0949 µM
# [34] = second compound 0.316 µM, first compound 0.3 µM
# [35] = second compound 0.316 µM, first compound 0.949 µM
# [36] = second compound 0.316 µM, first compound 3 µM
# [37] = second compound 1 µM, first compound 0.00949 µM
# [38] = second compound 1 µM, first compound 0.03 µM
# [39] = second compound 1 µM, first compound 0.0949 µM
# [40] = second compound 1 µM, first compound 0.3 µM
# [41] = second compound 1 µM, first compound 0.949 µM
# [42] = second compound 1 µM, first compound 3 µM
structure (smiles),measurement,setting,value
C=C(F)C(=O)N1CCN(c2nc(OCC3CCCN3C)nc3c2CCN(c2cccc4cccc(Cl)c24)C3)CC1CC#N (stereo not given) + Cc1c(S(C)(=O)=O)c(-c2cc(F)cc(N3CCN(c4ccc(NS(=O)(=O)c5ccc(NC(CCN6CCC(C(=O)OCCCP(=O)(O)O)CC6)CSc6ccccc6)c(S(=O)(=O)C(F)(F)F)c5)cc4)CC3)c2)c(-c2ccc(Cl)cc2)n1C(C)C,IC50,[1],> 10000 nM
same,IC50,[2],3720 nM
same,IC50,[3],2880 nM
same,IC50,"curve of first compound, second compound 3.16 µM",1980 nM
same,IC50,"curve of first compound, second compound 10 µM",3300 nM
same,"viability, T/C","second compound 0.1 µM, first compound 0.0316 µM",65.5%
same,"viability, T/C","second compound 0.1 µM, first compound 0.1 µM",66.2%
same,"viability, T/C","second compound 0.1 µM, first compound 0.316 µM",69.8%
same,"viability, T/C","second compound 0.1 µM, first compound 1 µM",81.1%
same,"viability, T/C","second compound 0.1 µM, first compound 3.16 µM",74.7%
same,"viability, T/C","second compound 0.1 µM, first compound 10 µM",51.3%
same,"viability, T/C","second compound 0.316 µM, first compound 0.0316 µM",67.2%
same,"viability, T/C","second compound 0.316 µM, first compound 0.1 µM",61.1%
same,"viability, T/C","second compound 0.316 µM, first compound 0.316 µM",69.6%
same,"viability, T/C","second compound 0.316 µM, first compound 1 µM",58%
same,"viability, T/C","second compound 0.316 µM, first compound 3.16 µM",52.4%
same,"viability, T/C","second compound 0.316 µM, first compound 10 µM",36.2%
same,"viability, T/C","second compound 1 µM, first compound 0.0316 µM",73.5%
same,"viability, T/C","second compound 1 µM, first compound 0.1 µM",75.4%
same,"viability, T/C","second compound 1 µM, first compound 0.316 µM",67.6%
same,"viability, T/C","second compound 1 µM, first compound 1 µM",53.9%
same,"viability, T/C","second compound 1 µM, first compound 3.16 µM",53.5%
same,"viability, T/C","second compound 1 µM, first compound 10 µM",41.1%
same,"viability, T/C","second compound 3.16 µM, first compound 0.0316 µM",78.2%
same,"viability, T/C","second compound 3.16 µM, first compound 0.1 µM",70%
same,"viability, T/C","second compound 3.16 µM, first compound 0.316 µM",64.5%
same,"viability, T/C","second compound 3.16 µM, first compound 1 µM",57.3%
same,"viability, T/C","second compound 3.16 µM, first compound 3.16 µM",46.2%
same,"viability, T/C","second compound 3.16 µM, first compound 10 µM",32.7%
same,"viability, T/C","second compound 10 µM, first compound 0.0316 µM",53.5%
same,"viability, T/C","second compound 10 µM, first compound 0.1 µM",65.8%
same,"viability, T/C","second compound 10 µM, first compound 0.316 µM",71.2%
same,"viability, T/C","second compound 10 µM, first compound 1 µM",64.4%
same,"viability, T/C","second compound 10 µM, first compound 3.16 µM",50.8%
same,"viability, T/C","second compound 10 µM, first compound 10 µM",30.3%
CCN1C(C(=O)NC23CCC(C(=O)O)(CC2)CC3)C(c2cccc(Cl)c2F)C2(C(=O)Nc3cc(Cl)ccc32)C12CCCCC2 (stereo not given) + CNC(C)C(=O)NC1CN(S(=O)(=O)c2cccc(S(=O)(=O)N3CCC4CCC(C(=O)NC(c5ccccc5)c5ccccc5)N4C(=O)C(NC(=O)C(C)NC)C3)c2)CCC2CCC(C(=O)NC(c3ccccc3)c3ccccc3)N2C1=O,IC50,[4],> 3000 nM
same,IC50,[5],> 3000 nM
same,IC50,[6],> 3000 nM
same,IC50,[1],> 3000 nM
same,IC50,[2],> 3000 nM
same,IC50,[3],> 3000 nM
same,"viability, T/C",[7],98.4%
same,"viability, T/C",[8],64.1%
same,"viability, T/C",[9],79.5%
same,"viability, T/C",[10],85.6%
same,"viability, T/C",[11],74.1%
same,"viability, T/C",[12],76%
same,"viability, T/C",[13],100%
same,"viability, T/C",[14],106%
same,"viability, T/C",[15],86.3%
same,"viability, T/C",[16],64.1%
same,"viability, T/C",[17],78.9%
same,"viability, T/C",[18],63.4%
same,"viability, T/C",[19],87.2%
same,"viability, T/C",[20],66.3%
same,"viability, T/C",[21],69.3%
same,"viability, T/C",[22],70.5%
same,"viability, T/C",[23],68.8%
same,"viability, T/C",[24],68.1%
same,"viability, T/C",[25],92.9%
same,"viability, T/C",[26],77.7%
same,"viability, T/C",[27],70.3%
same,"viability, T/C",[28],80.6%
same,"viability, T/C",[29],58.5%
same,"viability, T/C",[30],64.6%
same,"viability, T/C",[31],68.8%
same,"viability, T/C",[32],71.5%
same,"viability, T/C",[33],86%
same,"viability, T/C",[34],68.2%
same,"viability, T/C",[35],68.1%
same,"viability, T/C",[36],62.1%
same,"viability, T/C",[37],97%
same,"viability, T/C",[38],68.2%
same,"viability, T/C",[39],87.7%
same,"viability, T/C",[40],65.3%
same,"viability, T/C",[41],65.6%
same,"viability, T/C",[42],70.2%
Cc1nc(N2CCC3(CC2)COC(C)C3N)c(CO)nc1Sc1ccnc(N)c1Cl (stereo not given) + CNC(C)C(=O)NC1CN(S(=O)(=O)c2cccc(S(=O)(=O)N3CCC4CCC(C(=O)NC(c5ccccc5)c5ccccc5)N4C(=O)C(NC(=O)C(C)NC)C3)c2)CCC2CCC(C(=O)NC(c3ccccc3)c3ccccc3)N2C1=O,IC50,[4],105 nM
same,IC50,[5],125 nM
same,IC50,[6],119 nM
same,IC50,[1],157 nM
same,IC50,[2],647 nM
same,IC50,[3],300 nM
same,"viability, T/C",[7],90.5%
same,"viability, T/C",[8],56.4%
same,"viability, T/C",[9],57%
same,"viability, T/C",[10],41.5%
same,"viability, T/C",[11],62.1%
same,"viability, T/C",[12],30.6%
same,"viability, T/C",[13],103%
same,"viability, T/C",[14],54%
same,"viability, T/C",[15],60.7%
same,"viability, T/C",[16],51.6%
same,"viability, T/C",[17],39.5%
same,"viability, T/C",[18],25%
same,"viability, T/C",[19],114%
same,"viability, T/C",[20],59.2%
same,"viability, T/C",[21],65.9%
same,"viability, T/C",[22],40.1%
same,"viability, T/C",[23],42.8%
same,"viability, T/C",[24],40%
same,"viability, T/C",[25],68.9%
same,"viability, T/C",[26],66.1%
same,"viability, T/C",[27],52.5%
same,"viability, T/C",[28],45.8%
same,"viability, T/C",[29],32.6%
same,"viability, T/C",[30],28.8%
same,"viability, T/C",[31],60.8%
same,"viability, T/C",[32],80.8%
same,"viability, T/C",[33],60.3%
same,"viability, T/C",[34],57.4%
same,"viability, T/C",[35],47%
same,"viability, T/C",[36],31.7%
same,"viability, T/C",[37],71.5%
same,"viability, T/C",[38],67.8%
same,"viability, T/C",[39],49.9%
same,"viability, T/C",[40],48.1%
same,"viability, T/C",[41],52.9%
same,"viability, T/C",[42],28.6%
CNC(C)C(=O)NC1CN(S(=O)(=O)c2cccc(S(=O)(=O)N3CCC4CCC(C(=O)NC(c5ccccc5)c5ccccc5)N4C(=O)C(NC(=O)C(C)NC)C3)c2)CCC2CCC(C(=O)NC(c3ccccc3)c3ccccc3)N2C1=O (stereo not given),IC50,curve of compound,> 1000 nM
